Test results taken from patent publication US11427548B2 (Arvinas Operations, Inc., priority 2015, dated 2022).
Where two headings read alike, the source gives them in different places.

Molecular target: T1, Androgen Receptor (Homo sapiens, UniProt P10275)
T1 construct: endogenous in cells; host or cells: VCaP cells
T1 sequence (P10275 1-920): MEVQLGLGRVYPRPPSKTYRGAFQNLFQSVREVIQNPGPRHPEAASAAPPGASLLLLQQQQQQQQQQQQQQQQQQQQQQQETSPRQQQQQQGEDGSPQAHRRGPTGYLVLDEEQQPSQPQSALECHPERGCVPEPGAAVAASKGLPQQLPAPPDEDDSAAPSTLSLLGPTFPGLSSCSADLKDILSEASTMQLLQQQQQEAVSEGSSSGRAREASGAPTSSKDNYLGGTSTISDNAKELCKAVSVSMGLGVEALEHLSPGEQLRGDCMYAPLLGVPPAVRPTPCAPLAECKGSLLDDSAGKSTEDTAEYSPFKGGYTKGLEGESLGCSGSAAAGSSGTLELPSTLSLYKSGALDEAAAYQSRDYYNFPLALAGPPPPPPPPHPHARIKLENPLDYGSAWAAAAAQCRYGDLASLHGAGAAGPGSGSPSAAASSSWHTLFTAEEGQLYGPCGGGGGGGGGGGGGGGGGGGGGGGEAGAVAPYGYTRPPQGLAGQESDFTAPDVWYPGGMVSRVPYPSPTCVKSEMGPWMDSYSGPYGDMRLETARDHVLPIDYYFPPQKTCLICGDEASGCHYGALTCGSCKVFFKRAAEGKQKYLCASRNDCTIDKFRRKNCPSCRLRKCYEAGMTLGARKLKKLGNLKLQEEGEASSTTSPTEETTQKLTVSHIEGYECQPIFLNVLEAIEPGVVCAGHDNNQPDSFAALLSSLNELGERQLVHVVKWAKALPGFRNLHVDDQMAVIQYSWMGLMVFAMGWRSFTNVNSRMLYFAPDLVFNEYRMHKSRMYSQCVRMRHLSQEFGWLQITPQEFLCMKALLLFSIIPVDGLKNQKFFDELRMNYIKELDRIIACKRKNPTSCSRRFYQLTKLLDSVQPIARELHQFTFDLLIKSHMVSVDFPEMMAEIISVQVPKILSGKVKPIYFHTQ
Test: Androgen Receptor ELISA assay (PathScan AR ELISA) in VCaP cells: AR degradation, Dmax and DC50
Type: cell-based
Outline: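 VCaP cells in phenol red-free RPMI with 5% charcoal-stripped FBS were grown at least 3 days, then given compound as 7 half-log doses in 0.1% DMSO with 0.1 nM R1881 for 24 h. Lysates went into a sandwich AR ELISA with TMB read at 450 nm.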

[1] = VCaP cells; Table 35; read-out: VCaP DC50
[2] = VCaP, VCaP cells; Table 35; read-out: VCaP Dmax (%)
[3] = read-out: VCaP DC50; VCaP cells; Table 35
[4] = read-out: VCaP DC50; concentration that caused 50% Androgen Receptor degradation, VCaP cells (Table 32)
[5] = read-out: VCaP DC50; VCaP cells; Table 36
[6] = VCaP cells; Table 36; read-out: VCaP DC50
[7] = VCaP, VCaP cells; Table 36; read-out: VCaP Dmax (%)

Structure (SMILES)	DC50 [1]	Dmax [2]	Dmax (VCaP, read-out: VCaP Dmax (%))	other results
C[C@H](NC(=O)[C@@H]1C[C@@H](O)CN1C(=O)[C@@H](NC(=O)COCCCCOc1ccc(C(=O)N[C@H]2C(C)(C)[C@H](Oc3ccc(C#N)c(Cl)c3)C2(C)C)cc1)C(C)(C)C)c1ccc(Cl)cc1 [Example 572]	< 0.05 µM	> 71%		
Cc1ncsc1-c1ccc([C@H](C)NC(=O)[C@@H]2C[C@@H](O)CN2C(=O)[C@@H](NC(=O)COC[C@@H](O)CCOc2ccc(-c3ccc(N4C(=S)N(c5ccc(C#N)c(C(F)(F)F)c5)C(=O)C4(C)C)cc3)cc2)C(C)(C)C)cc1 [Example 575]			> 71%	DC50 [3]: < 0.05 µM
CC(C)(C)[C@H](NC(=O)CNc1ccc(C#Cc2ccc(C(=O)N[C@H]3C(C)(C)[C@H](Oc4ccc(C#N)c(Cl)c4)C3(C)C)cc2)cn1)C(=O)N1C[C@H](O)C[C@H]1C(=O)NCc1ccc(C#N)cc1 [Example 498]	< 0.05 µM	> 71%		
Cc1ncsc1-c1ccc(CNC(=O)[C@@H]2C[C@@H](O)CN2C(=O)[C@@H](NC(=O)COCCCCOc2ccc(-c3ccc(N4C(=S)N(c5ccc(C#N)c(Cl)c5)C(=O)C4(C)C)cc3)cc2)C(C)(C)C)cc1 [Example 112, (2S,4R)-1-[(2S)-2-{2-[4-(4-{4-[3-(3-chloro-4-cyanophenyl)-5,5-dimethyl-4-oxo-2-sulfanylideneimidazolidin-1-yl]phenyl}phen-oxy)butoxy]acetamido}-3,3-dimethylbutanoyl]-4-hydroxy-N-{[4-(4-methyl-1,3-thiazol-5-yl)phenyl]methyl}pyrrolidine-2-carboxamide]			> 71%	DC50 [4]: < 0.05 µM
Cc1ncsc1-c1ccc(C(C)NC(=O)C2CC(O)CN2C(=O)C(NC(=O)COCCCOCCCCCOc2ccc(N3C(=S)N(c4ccc(C#N)c(C(F)(F)F)c4)C(=O)C3(C)C)cc2)C2COC2)cc1 (stereo not shown) [Example 661, 1-(2-(2-(3-((5-(4-(3-(4-cyano-3-(trifluoromethyl)phenyl)-5,5-dimethyl-4-oxo-2-thioxoimidazolidin-1-yl)phenoxy)pentyl)oxy)propoxy)acetamido)-2-(oxetan-3-yl)acetyl)-4-hydroxy-N-(1-(4-(4-methylthiazol-5-yl)phenyl)ethyl)pyrrolidine-2-carboxamide]			< 25%	DC50 [5]: > 0.501 µM
Cc1ncoc1-c1ccc(CNC(=O)[C@@H]2C[C@@H](O)CN2C(=O)[C@@H](NC(=O)COCCCC(=O)Nc2ccc(-c3ccc(N4C(=S)N(c5ccc(C#N)c(C(F)(F)F)c5)C(=O)C4(C)C)cc3)cc2)C(C)(C)C)cc1 [Example 135, (2S,4R)-1-[(2S)-2-[2-(3-{[4-(4-{3-[4-cyano-3-(trifluoromethyl)phenyl]-5,5-dimethyl-4-oxo-2-sulfanylideneimidazolidin-1-yl}phenyl)phenyl]carbamoyl}pro-poxy)acetamido]-3,3-dimethylbutanoyl]-4-hydroxy-N-{[4-(4-methyl-1,3-oxazol-5-yl)phenyl]methyl}pyrrolidine-2-carboxamide]			51 to 70%	DC50 [4]: < 0.05 µM
CNCC(NC(=O)[C@@H]1C[C@@H](O)CN1C(=O)[C@@H](NC(=O)COCCCCCOc1ccc(C(=O)N[C@H]2C(C)(C)[C@H](Oc3ccc(C#N)c(Cl)c3)C2(C)C)cc1)C(C)(C)C)c1ccc(-c2scnc2C)cc1 (stereo partly shown) [Example 508]	< 0.05 µM	> 71%		
Cc1ncsc1-c1ccc([C@H](C)NC(=O)[C@@H]2C[C@@H](O)CN2C(=O)[C@@H](NC(=O)COCCOc2ccc(-c3ccc(C(=O)N[C@H]4C(C)(C)[C@H](Oc5ccc(C#N)c(Cl)c5)C4(C)C)cc3)cc2)C(C)(C)C)cc1 [Example 450]	< 0.05 µM	> 71%		
Cc1nccn1-c1ccc(C(C)NC(=O)C2CC(O)CN2C(=O)C(C(C)C)n2cc(-c3ccc(OC4CCN(c5ccc(N6C(=S)N(c7ccc(C#N)c(C(F)(F)F)c7)C(=O)C6(C)C)cn5)CC4)nc3)cn2)cc1 (stereo not shown) [Example 631, 1-(2-(4-(6-((1-(5-(3-(4-cyano-3-(trifluoromethyl)phenyl)-5,5-dimethyl-4-oxo-2-thioxoimidazolidin-1-yl)pyridin-2-yl)piperidin-4-yl)oxy)pyridin-3-yl)-1H-pyrazol-1-yl)-3-methylbutanoyl)-4-hydroxy-N-(1-(4-(2-methyl-1H-imidazol-1-yl)phenyl)ethyl)pyrrolidine-2-carboxamide]			< 25%	DC50 [5]: > 0.501 µM
Cc1ncsc1-c1ccc([C@H](C)NC(=O)[C@@H]2C[C@@H](O)CN2C(=O)[C@@H](NC(=O)OCc2ccccc2)[C@@H](C)OCCCCCCOc2ccc(N3C(=O)N(c4ccc(C#N)c(C(F)(F)F)c4)C(=O)C3(C)C)cc2)cc1 [Example 677, benzyl ((2S,3R)-3-((6-(4-(3-(4-cyano-3-(trifluoromethyl)phenyl)-5,5-dimethyl-4-oxo-2-thioxoimidazolidin-1-yl)phenoxy)hexyl)oxy)-1-((2S,4R)-4-hydroxy-2-(((S)-1-(4-(4-methylthiazol-5-yl)phenyl)ethyl)carbam-oyl)pyrrolidin-1-y)-1-oxobutan-2-yl)carbamate]				DC50 [5]: > 0.501 µM
Cc1ncsc1-c1ccc(CNC(=O)[C@@H]2C[C@@H](O)CN2C(=O)[C@@H](NC(=O)COC[C@H](O)[C@@H](O)COc2ccc(-c3ccc(N4C(=S)N(c5ccc(C#N)c(C(F)(F)F)c5)C(=O)C4(C)C)cc3)cc2)C(C)(C)C)cc1 [Example 567]			> 71%	DC50 [3]: < 0.05 µM
Cc1ncsc1-c1ccc([C@H](C)NC(=O)[C@@H]2C[C@@H](O)CN2C(=O)[C@@H](NC(=O)CCCCN2CCN(c3ccc(C(=O)N[C@H]4C(C)(C)[C@H](Oc5ccc(C#N)c(Cl)c5)C4(C)C)cn3)CC2)C(C)(C)C)cc1 [Example 779, N-((1r,3r)-3-(3-chloro-4-cyanophenoxy)-2,2,4,4-tetramethylcyclobutyl)-6-(4-(5-(((S)-1-((2S,4R)-4-hydroxy-2-(((S)-1-(4-(4-methylthiazol-5-yl)phenyl)ethyl)carbamoyl)pyrrolidin-1-yl)-3,3-dimethyl-1-oxobutan-2-yl)amino)-5-oxopentyl)piperazin-1-yl)nicotinamide]				DC50 [6]: > 0.501 µM; Dmax [7]: < 25%
CC(C)(C)[C@H](NC(=O)CNCCCCCNc1ccc(C(=O)N[C@H]2C(C)(C)[C@H](Oc3ccc(C#N)c(Cl)c3)C2(C)C)cc1)C(=O)N1C[C@H](O)C[C@H]1C(=O)NCc1ccc(C#N)cc1 [Example 480]	> 0.501 µM	26 to 50%		
CC(C)(C)[C@H](NC(=O)COCCCCOc1ccc(-c2ccc(N3C(=S)N(c4ccc(C#N)c(C(F)(F)F)c4)C(=O)C3(C)C)cc2)cc1)C(=O)N1C[C@H](O)C[C@H]1C(=O)NCc1ccc(-c2cnco2)cc1 [Example 96, (2S,4R)-1-[(2S)-2-(2-{4-[4-(4-{3-[4-cyano-3-(trifluoromethyl)phenyl]-5,5-dimethyl-4-oxo-2-sulfanylideneimidazolidin-1-yl}phenyl)phenoxy]butoxy}acetamido)-3,3-dimethylbutanoyl]-4-hydroxy-N-{[4-(1,3-oxazol-5-yl)phenyl]methyl}pyrrolidine-2-carboxamide]			51 to 70%	DC50 [4]: < 0.05 µM
Cc1ncsc1-c1ccc(CNC(=O)[C@@H]2C[C@@H](O)CN2C(=O)[C@@H](NC(=O)CCOCCOc2ccc(-c3ccc(N4C(=S)N(c5ccc(C#N)c(C(F)(F)F)c5)C(=O)C4(C)C)cc3)cn2)C(C)(C)C)cc1 [Example 86]			26 to 50%	DC50 [4]: < 0.05 µM
Cc1ncsc1-c1ccc([C@H](C)NC(=O)[C@@H]2C[C@@H](O)CN2C(=O)[C@@H](c2cc(CCCN3CCN(c4ccc(C(=O)N[C@H]5C(C)(C)[C@H](Oc6ccc(C#N)c(Cl)c6)C5(C)C)cn4)CC3)no2)C(C)C)cc1 [Example 819, N-((1r,3r)-3-(3-chloro-4-cyanophenoxy)-2,2,4,4-tetramethylcyclobutyl)-6-(4-(3-(5-((R)-1-((2S, 4R)-4-hydroxy-2-(((S)-1-(4-(4-methylthiazol-5-yl)phenyl)ethyl)carbamoyl)pyrrolidin-1-yl)-3-methyl-1-oxobutan-2-yl)isoxazol-3-yl)propyl)piperazin-1-yl) nicotinamide]				DC50 [6]: < 0.05 µM; Dmax [7]: > 71%
